Test results from patent US6525001B1, “Substituted pyrimidine and pyridine herbicides” (Mid-American Commercialization Corporation, priority 1997, dated 2003).

Legend:
Format in all cases: in vivo
[1] = test system: large crabgrass (Digitaria sanguinalis); assay: Test C; parameters: key: 0 was no effect; 100 was complete control; details: PREEMERGENCE
[2] = test system: bermudagrass (Cynodon dactylon); assay: Test E pre-/postemergence/post directed; details: POSTEMERGENCE, Rate 250 g/ha
How it was run: (§1)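 Injury scored visually on a 0–100 scale (100 = complete control) 13 to 21 days after treatment. Test chemicals, formulated with surfactant in non-phytotoxic solvent, were applied to soil within one day of planting, to plants at two to four leaves (three to twenty cm), or as directed spray at plant base.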

[3] = test system: large crabgrass (Digitaria sanguinalis); assay: Test E pre-/postemergence/post directed; details: POSTEMERGENCE, Rate 250 g/ha
How it was run: as §1

[4] = test system: itchgrass (Rottboellia exaltata); assay: Test E pre-/postemergence/post directed
How it was run: as §1

[5] = test system: Spanishneedles (Bidens bipinnata); assay: Test E pre-/postemergence/post directed
How it was run: as §1

[6] = test system: common ragweed (Ambrosia elatior); assay: Test E pre-/postemergence/post directed
How it was run: as §1

[7] = test system: sandbur (Cenchrus echinatus); assay: Test E pre-/postemergence/post directed
How it was run: as §1

[8] = test system: cocklebur (Xanthium strumarium); assay: Test C; parameters: key: 0 was no effect; 100 was complete control; details: PREEMERGENCE
[9] = test system: common ragweed (Ambrosia elatior); assay: Test C; parameters: key: 0 was no effect; 100 was complete control; details: PREEMERGENCE
[10] = test system: fall panicum (Panicum dichotomiflorum); assay: Test C; details: PREEMERGENCE
[11] = test system: guineagrass (Panicum maximum); assay: Test E pre-/postemergence/post directed; parameters: key: 0 is no effect; 100 is complete control
How it was run: as §1

[12] = test system: dallisgrass (Paspalum dilatatum); assay: Test E pre-/postemergence/post directed; parameters: key: 0 is no effect; 100 is complete control
How it was run: as §1

[13] = test system: goosegrass (Eleusine indica); assay: Test E pre-/postemergence/post directed; parameters: key: 0 is no effect; 100 is complete control
How it was run: as §1

[14] = test system: common ragweed (Ambrosia elatior); assay: Test E pre-/postemergence/post directed; parameters: key: 0 is no effect; 100 is complete control; details: PREEMERGENCE
How it was run: as §1

[15] = test system: barnyardgrass (Echinochloa crus-galli); assay: Test C; parameters: key: 0 was no effect; 100 was complete control; details: PREEMERGENCE
[16] = test system: arrowleaf sida (Sida rhombifolia); assay: Test C; parameters: key: 0 was no effect; 100 was complete control; details: PREEMERGENCE
[17] = test system: velvetleaf (Abutilon theophrasti); assay: Test C; parameters: key: 0 was no effect; 100 was complete control; details: PREEMERGENCE
[18] = test system: giant foxtail (Setaria faberii); assay: Test C; parameters: key: 0 was no effect; 100 was complete control; details: PREEMERGENCE
[19] = test system: ladysthumb smartweed (Polygonum persicaria); assay: Test C; details: PREEMERGENCE
[20] = test system: redroot pigweed (Amaranthus retroflexus); assay: Test C; parameters: key: 0 was no effect; 100 was complete control; details: PREEMERGENCE

SMILES: Cc1cnc(-c2ccc(C(F)(F)F)cc2)nc1Cc1cccc(C(F)(F)F)c1 [Example 1, 5-methyl-2-[4-(trifluoromethyl)phenyl]-4-[[3-(trifluoromethyl)phenyl]methyl]pyrimidine]
- Plant response rating, Large crabgrass ([1]; Rate 35 g/ha): 100
- Plant response rating, Large crabgrass ([1]; Rate 70 g/ha): 100
- Plant response rating, Large crabgrass ([1]; Rate 140 g/ha): 100
- Plant response rating, Bermudagrass [2]: 30
- Plant response rating, Large crabgrass [3]: 85
- Plant response rating, Itchgrass ([4]; POSTEMERGENCE, Rate 250 g/ha): 85
- Plant response rating, Itchgrass ([4]; PREEMERGENCE, Rate 32 g/ha): 20
- Plant response rating, Itchgrass ([4]; PREEMERGENCE, Rate 64 g/ha): 20
- Plant response rating, Itchgrass ([4]; PREEMERGENCE, Rate 125 g/ha): 50
- Plant response rating, Itchgrass ([4]; PREEMERGENCE, Rate 250 g/ha): 95
- Plant response rating, Spanishneedles ([5]; POSTEMERGENCE, Rate 250 g/ha): 10
- Plant response rating, Spanishneedles ([5]; PREEMERGENCE, Rate 32 g/ha): 40
- Plant response rating, Spanishneedles ([5]; PREEMERGENCE, Rate 64 g/ha): 80
- Plant response rating, Spanishneedles ([5]; PREEMERGENCE, Rate 125 g/ha): 90
- Plant response rating, Com. ragweed ([6]; POSTEMERGENCE, Rate 250 g/ha): 70
- Plant response rating, Com. ragweed ([6]; PREEMERGENCE, Rate 32 g/ha): 90
- Plant response rating, Sandbur ([7]; POSTEMERGENCE, Rate 250 g/ha): 10
- Plant response rating, Sandbur ([7]; PREEMERGENCE, Rate 32 g/ha): 20
- Plant response rating, Sandbur ([7]; PREEMERGENCE, Rate 64 g/ha): 65
- Plant response rating, Sandbur ([7]; PREEMERGENCE, Rate 125 g/ha): 95
- Plant response rating, Cocklebur ([8]; Rate 35 g/ha): 0
- Plant response rating, Cocklebur ([8]; Rate 70 g/ha): 0
- Plant response rating, Cocklebur ([8]; Rate 140 g/ha): 0
- Plant response rating, Common ragweed ([9]; Rate 35 g/ha): 80
- Plant response rating, Common ragweed ([9]; Rate 70 g/ha): 100
- Plant response rating, Common ragweed ([9]; Rate 140 g/ha): 100
- Plant response rating, Fall panicum ([10]; Rate 35 g/ha): 90
- Plant response rating, Fall panicum ([10]; Rate 70 g/ha): 90
- Plant response rating, Fall panicum ([10]; Rate 140 g/ha): 95
- Plant response rating, Guineagrass ([11]; POSTEMERGENCE, Rate 250 g/ha): 70
- Plant response rating, Guineagrass ([11]; PREEMERGENCE, Rate 32 g/ha): 90
- Plant response rating, Guineagrass ([11]; PREEMERGENCE, Rate 64 g/ha): 100
- Plant response rating, Guineagrass ([11]; PREEMERGENCE, Rate 125 g/ha): 100
- Plant response rating, Guineagrass ([11]; PREEMERGENCE, Rate 250 g/ha): 100
- Plant response rating, Dallisgrass ([12]; POSTEMERGENCE, Rate 250 g/ha): 90
- Plant response rating, Dallisgrass ([12]; PREEMERGENCE, Rate 32 g/ha): 98
- Plant response rating, Dallisgrass ([12]; PREEMERGENCE, Rate 64 g/ha): 100
- Plant response rating, Dallisgrass ([12]; PREEMERGENCE, Rate 125 g/ha): 100
- Plant response rating, Dallisgrass ([12]; PREEMERGENCE, Rate 250 g/ha): 100
- Plant response rating, Goosegrass ([13]; POSTEMERGENCE, Rate 250 g/ha): 70
- Plant response rating, Goosegrass ([13]; PREEMERGENCE, Rate 32 g/ha): 100
- Plant response rating, Goosegrass ([13]; PREEMERGENCE, Rate 64 g/ha): 100
- Plant response rating, Goosegrass ([13]; PREEMERGENCE, Rate 125 g/ha): 100
- Plant response rating, Goosegrass ([13]; PREEMERGENCE, Rate 250 g/ha): 100
- Plant response rating, Com. ragweed ([14]; Rate 64 g/ha): 100
- Plant response rating, Com. ragweed ([14]; Rate 125 g/ha): 100
- Plant response rating, Com. ragweed ([14]; Rate 250 g/ha): 100
- Plant response rating, Barnyardgrass ([15]; Rate 35 g/ha): 20
- Plant response rating, Barnyardgrass ([15]; Rate 70 g/ha): 75
- Plant response rating, Barnyardgrass ([15]; Rate 140 g/ha): 100
- Plant response rating, Arrowleaf sida ([16]; Rate 35 g/ha): 85
- Plant response rating, Arrowleaf sida ([16]; Rate 70 g/ha): 95
- Plant response rating, Arrowleaf sida ([16]; Rate 140 g/ha): 100
- Plant response rating, Velvetleaf ([17]; Rate 35 g/ha): 20
- Plant response rating, Velvetleaf ([17]; Rate 70 g/ha): 75
- Plant response rating, Velvetleaf ([17]; Rate 140 g/ha): 100
- Plant response rating, Giant foxtail ([18]; Rate 35 g/ha): 100
- Plant response rating, Giant foxtail ([18]; Rate 70 g/ha): 100
- Plant response rating, Giant foxtail ([18]; Rate 140 g/ha): 100
- Plant response rating, Ladysthumb ([19]; Rate 35 g/ha): 25
- Plant response rating, Ladysthumb ([19]; Rate 70 g/ha): 90
- Plant response rating, Ladysthumb ([19]; Rate 140 g/ha): 95
- Plant response rating, Redroot pigweed ([20]; Rate 35 g/ha): 100
- Plant response rating, Redroot pigweed ([20]; Rate 70 g/ha): 100
- Plant response rating, Redroot pigweed ([20]; Rate 140 g/ha): 100
